Test results: patent publication US12059420B2 (BRISTOL-MYERS SQUIBB COMPANY, priority 2018, dated 2024)
Where a name gives a salt, the structure may show the parent alone.

Molecular target: T1, human IDO1 (Homo sapiens, UniProt P14902)
T1 construct: expressed in transfected cells
Test: IDO inhibition assay in HEK293 cells stably expressing human IDO1 (kynurenine production, Ehrlich reagent, absorbance 490 nm)
Assay type: cell-based
Details: 20 hours incubation with compound, 500 nM reference standard = 100% inhibition, read-out: IDO1 HEK Human IC50
Procedure: HEK293 cells were transfected with a pCDNA-based mammalian expression vector harboring human IDO1 cDNA (NM 002164.2) by electroporation. They were cultured in medium (DMEM with 10% FBS) containing 1 mg/ml G418 for two weeks. Clones of HEK293 cells that stably expressed human IDO1 protein were selected and expanded for IDO inhibition assay.
The human IDO1/HEK293 cells were seeded at 10,000 cells per 50 μL per well with RPMI/phenol red free media contains 10% FBS in a 384-well black wall clear bottom tissue culture plate (Matrix Technologies LLC) 100 nL of certain concentration of compound was then added to each well using ECHO liquid handling systems. The cells were incubated for 20 hours in 37° C. incubator with 5% CO2.
The compound treatments were stopped by adding trichloroacetic acid (Sigma-Aldrich) to a final concentration at 0.2%. The cell plate was further incubated at 50° C. for 30 minute. The equal volume supernatant (20 μL) and 0.2% (w/v) Ehrlich reagent (4-dimethylaminobenzaldehyde, Sigma-Aldrich) in glacial acetic acid were mixed in a new clear bottom 384-well plate. This plate was then incubated at RT for 30 minute. The absorbance at 490 nm was measured on Envision plate reader.
Compound IC50 values were calculated using the counts of 500 nM of a reference standard treatment as one hundred percent inhibition, and counts of no compound but DMSO treatment as zero percent inhibition.

T1 sequence (P14902 whole entry): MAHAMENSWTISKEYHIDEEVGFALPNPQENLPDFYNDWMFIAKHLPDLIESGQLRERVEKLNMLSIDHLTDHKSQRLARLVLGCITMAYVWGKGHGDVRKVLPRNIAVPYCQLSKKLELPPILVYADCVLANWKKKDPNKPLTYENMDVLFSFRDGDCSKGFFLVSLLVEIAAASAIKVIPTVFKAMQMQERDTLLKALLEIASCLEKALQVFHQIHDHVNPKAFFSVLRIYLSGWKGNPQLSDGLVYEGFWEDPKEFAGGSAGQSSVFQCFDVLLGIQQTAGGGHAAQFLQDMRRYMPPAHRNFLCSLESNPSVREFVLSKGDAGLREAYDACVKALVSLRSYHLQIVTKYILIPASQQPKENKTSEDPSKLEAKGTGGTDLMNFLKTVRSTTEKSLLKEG

Question: Which IC50 does the source give for `CCCN(Cc1ccccc1)c1cc(NC(=O)Nc2ccc(C(F)(F)F)cc2F)cc(-c2ccccc2-c2nnn[nH]2)n1` [Example 265, 1-(2-(2-(1H-tetrazol-5-yl)phenyl)-6-(benzyl(propyl)amino)pyridin-4-yl)-3-(2-fluoro-4-(trifluoromethyl)phenyl)urea] here?
Answer: 43.3 nM

Question: Which IC50 does the source give for `CCCN(Cc1ccccc1)c1cc(NC(=O)Cc2ccccc2)cc(-c2ccccc2-c2nn[nH]n2)n1` [Example 225, N-(2-(2-(2H-tetrazol-5-yl)phenyl)-6-(benzyl(propyl)amino)pyridin-4-yl)-2-phenylacetamide] here?
Answer: 364 nM

Question: Which IC50 does the source give for `Cc1cc(Nc2cc(-c3ccccc3-c3nnn[nH]3)nc(N(Cc3ccccc3)CC(C)C)c2)ccc1C#N` [Example 176, 4-((2-(2-(1H-tetrazol-5-yl)phenyl)-6-(benzyl(isobutyl)amino)pyridin-4-yl)amino)-2-methylbenzonitrile] here?
Answer: 10.5 nM

Question: How did the IC50 turn out when `CCc1cnc(Nc2cc(-c3ccccc3-c3nnn[nH]3)nc(N(Cc3ccccc3)CC(C)C)c2)nc1` [Example 162, 6-(2-(1H-tetrazol-5-yl)phenyl)-N2-benzyl-N4-(5-ethylpyrimidin-2-yl)-N2-isobutylpyridine-2,4-diamine] was run?
Answer: 26.2 nM

Question: `CCCN(Cc1ccccc1)c1cc(NC(=O)Cc2ccccc2F)cc(-c2ccccc2-c2nn[nH]n2)n1` [Example 202, N-(2-(2-(2H-tetrazol-5-yl)phenyl)-6-(benzyl(propyl)amino)pyridin-4-yl)-2-(2-fluorophenyl)acetamide] was tested. Which IC50 did it give?
Answer: 202 nM

Question: How did the IC50 turn out when `CCN(Cc1ccccc1)c1cc(NC(=O)Cc2ccc(C)nc2)cc(-c2ccccc2-c2nnn[nH]2)n1` [Example 285] was run?
Answer: 2330 nM

Question: `Cc1ccc(CC(=O)Nc2cc(-c3ccccc3-c3nnn[nH]3)nc(N(Cc3ccccc3)CC(C)C)n2)cc1` [Example 8, N-(6-(2-(1H-tetrazol-5-yl)phenyl)-2-(benzyl(isobutyl)amino)pyrimidin-4-yl)-2-(p-tolyl)acetamide] was tested. Which IC50 did it give?
Answer: 8.5 nM

Question: `Cc1ccc(CC(=O)Nc2cc(-c3ccccc3-c3nnn[nH]3)nc(N3CC(C)OC(C)C3)c2)cc1` (centres unmarked) [Example 125, N-(2-(2-(1H-tetrazol-5-yl)phenyl)-6-(2,6-dimethylmorpholino)pyridin-4-yl)-2-(p-tolyl)acetamide] was tested. Which IC50 did it give?
Answer: 1110 nM

Question: How did the IC50 turn out when `COc1ccccc1N1CCN(c2cc(NC(=O)Cc3ccc(C)cc3)cc(-c3ccccc3-c3nnn[nH]3)n2)CC1` [Example 129, N-(2-(2-(1H-tetrazol-5-yl)phenyl)-6-(4-(2-methoxyphenyl)piperazin-1-yl)pyridin-4-yl)-2-(p-tolyl)acetamide] was run?
Answer: 1250 nM

Question: With `CC(C)CN(Cc1ccccc1)c1cc(Nc2ccc3nncn3n2)cc(-c2ccccc2-c2nnn[nH]2)n1` [Example 165, 6-(2-(1H-tetrazol-5-yl)phenyl)-N4-([1,2,4]triazolo[4,3-b]pyridazin-6-yl)-N2-benzyl-N2-isobutylpyridine-2,4-diamine] as the compound, how does the IC50 read?
Answer: 1120 nM

Question: `CC(C)CN(CC(C)C)c1cc(NC(=O)Nc2ccccc2F)cc(-c2ccccc2-c2nnn[nH]2)n1` [Example 253, 1-(2-(2-(1H-tetrazol-5-yl)phenyl)-6-(diisobutylamino)pyridin-4-yl)-3-(2-fluorophenyl)urea] was tested. Which IC50 did it give?
Answer: 972 nM

Question: With `CC(C)CN(Cc1ccccc1)c1cc(Nc2ccc3c(c2)OC(F)(F)O3)cc(-c2ccccc2-c2nnn[nH]2)n1` [Example 182, 6-(2-(1H-tetrazol-5-yl)phenyl)-N2-benzyl-N4-(2,2-difluorobenzo[d][1,3]dioxol-5-yl)-N2-isobutylpyridine-2,4-diamine] as the compound, how does the IC50 read?
Answer: 9.5 nM

Question: Which IC50 does the source give for `CC(C)CN(Cc1ccccc1)c1cc(NC(=O)c2ccc(F)c(F)c2)cc(-c2ccccc2-c2nnn[nH]2)n1` [Example 236, N-(2-(2-(1H-tetrazol-5-yl)phenyl)-6-difluorobenzamide (benzyl(isobutyl)amino)pyridin-4-yl)-3,4-] here?
Answer: 687 nM

Question: For `CC(C)CN(Cc1ccccc1)c1cc(Nc2ccn3nccc3n2)cc(-c2ccccc2-c2nnn[nH]2)n1` [Example 50, 6-(2-(1H-tetrazol-5-y1)phenyl)-N2-benzyl-N2-isobutyl-N4-(pyrazolo[1,5-a]pyrimidin-5-yl)pyridine-2,4-diamine], which IC50 is on record?
Answer: 131 nM

Question: Which IC50 does the source give for `CCCN(Cc1ccccc1)c1cc(NC(=O)Nc2ccc(Cl)cc2F)cc(-c2ccccc2-c2nnn[nH]2)n1` [Example 72, 1-(2-(2-(1H-tetrazol-5-yl)phenyl)-6-(benzyl(propyl)amino)pyridin-4-yl)-3-(4-chloro-2-fluorophenyl)urea, TFA] here?
Answer: 8.5 nM

Question: Which IC50 does the source give for `Cc1ccnc(Nc2cc(-c3ccccc3-c3nnn[nH]3)nc(N(Cc3ccccc3)CC(C)C)c2)n1` [Example 145, 6-(2-(1H-tetrazol-5-yl)phenyl)-N2-benzyl-N2-isobutyl-N4-(4-methylpyrimidin-2-yl)pyridine-2,4-diamine] here?
Answer: 73.6 nM

Question: `CCCN(Cc1ccccc1)c1cc(NC(=O)Nc2ccccc2F)cc(-c2ccccc2-c2nnn[nH]2)n1` [Example 262, 1-(2-(2-(1H-tetrazol-5-yl)phenyl)-6-(benzyl(propyl)amino)pyridin-4-yl)-3-(2-fluorophenyl)urea] was tested. Which IC50 did it give?
Answer: 105 nM

Question: With `CCCN(Cc1ccccc1)c1cc(NC(=O)Cc2csc3ccccc23)cc(-c2ccccc2-c2nn[nH]n2)n1` [Example 216, N-(2-(2-(2H-tetrazol-5-yl)phenyl)-6-(benzyl(propyl)amino)pyridin-4-yl)-2-(benzo[b]thiophen-3-yl)acetamide] as the compound, how does the IC50 read?
Answer: 76.8 nM

Question: Which IC50 does the source give for `CCCN(Cc1ccccc1)c1cc(NC(=O)Nc2cc(C)cc(C)c2)cc(-c2ccccc2-c2nnn[nH]2)n1` [Example 263, 1-(2-(2-(1H-tetrazol-5-yl)phenyl)-6-(benzyl(propyl)amino)pyridin-4-yl)-3-(3,5-dimethylphenyl)urea] here?
Answer: 145 nM

Question: With `CCCN(Cc1ccccc1)c1cc(NC(=O)Cc2ccccc2OC)cc(-c2ccccc2-c2nn[nH]n2)n1` [Example 203, N-(2-(2-(2H-tetrazol-5-yl)phenyl)-6-(benzyl(propyl)amino)pyridin-4-yl)-2-(2-methoxyphenyl)acetamide] as the compound, how does the IC50 read?
Answer: 305 nM

Question: `COCCN(c1cc(NC(=O)Nc2ccc(F)cc2)cc(-c2ccccc2-c2nnn[nH]2)n1)C1CCC(F)(F)CC1` [Example 114, 1-(2-(2-(1H-tetrazol-5-yl)phenyl)-6-((4,4-difluorocyclohexyl)(2-methoxyethyl)amino)pyridin-4-yl)-3-(4-fluorophenyl)urea] was tested. Which IC50 did it give?
Answer: 6000 nM

Question: How did the IC50 turn out when `CCN(Cc1ccccc1)c1cc(NC(=O)Nc2ccc(OC(F)(F)F)cc2)cc(-c2ccccc2-c2nnn[nH]2)n1` [Example 277] was run?
Answer: 782 nM

Question: With `Cc1ccc(CC(=O)Nc2cc(-c3ccccc3-c3nnn[nH]3)nc(N(CC(C)C)C3CCOCC3)c2)cc1` [Example 77, N-(2-(2-(1H-tetrazol-5-yl)phenyl)-6-(isobutyl(tetrahydro-2H-pyran-4-yl)amino)pyridin-4-yl)-2-(p-tolyl)acetamide, TFA] as the compound, how does the IC50 read?
Answer: 2090 nM

Question: With `CCCN(Cc1ccccc1)c1cc(NC(=O)Nc2cc(C)on2)cc(-c2ccccc2-c2nnn[nH]2)n1` [Example 297] as the compound, how does the IC50 read?
Answer: 270 nM

Question: With `CCN(Cc1ccccc1)c1cc(NC(=O)Nc2ccc(OC(F)F)cc2)cc(-c2ccccc2-c2nnn[nH]2)n1` [Example 280] as the compound, how does the IC50 read?
Answer: 554 nM

Question: With `COc1cc(F)cc(Nc2cc(-c3ccccc3-c3nnn[nH]3)nc(N(Cc3ccccc3)CC(C)C)c2)c1` [Example 197, 6-(2-(1H-tetrazol-5-yl)phenyl)-N2-benzyl-N4-(3-fluoro-5-methoxyphenyl)-N2-isobutylpyridine-2,4-diamine] as the compound, how does the IC50 read?
Answer: 5.8 nM
